The text below walks through data of US9512120B2, “Microbicidally active imidazopyridine derivatives” (Syngenta Participations AG, priority 2013, dated 2016).

Where only a bound is given, the exact number is not on record here.

In series [1] the test system is Botryotinia fuckeliana (Botrytis cinerea). Kind of series: Botryotinia fuckeliana (Botrytis cinerea) / liquid culture (gray mould). The series is classed as cell-based. To be noted: Vogels broth, 24° C., 3-4 days after application, read-out: control of Botryotinia fuckeliana (inhibition of growth, photometric). The essentials: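 Test compound was applied at 200 ppm in DMSO, then Vogels nutrient broth containing cryo-stored B. cinerea conidia was added. Photometric growth-inhibition reading followed after 3-4 days at 24 °C.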

For series [2], the system named is Pyrenophora teres. Kind of series: Pyrenophora teres / barley / leaf disc preventative (net blotch). Format: in vivo. To be noted: foliar, barley leaf segments cv Hasso, inoculated two days after application, assessed 5-7 days after application, read-out: control of Pyrenophora teres (disease control compared to untreated). The essentials:
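Preventative leaf-disc test: 200 ppm spray, then spore inoculation after two days on barley cv Hasso segments. Incubation 20 °C, 65% relative humidity, 12 h light/12 h dark; efficacy rated against untreated checks at 5-7 days post-application.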

Series [3] relates to Plasmopara viticola. Kind of series: Plasmopara viticola / grape / leaf disc preventative. Format: in vivo. To be noted: foliar, grape vine leaf disks, inoculated 1 day after application, assessed 6-8 days after application, read-out: control of Plasmopara viticola (percent disease control compared to untreated).
Series [4] relates to Phaeosphaeria nodorum (Septoria nodorum). Kind of series: Phaeosphaeria nodorum (Septoria nodorum) / wheat / leaf disc preventative (glume blotch). The series is classed as in vivo. To be noted: Parastagonospora nodorum, foliar, wheat leaf segments cv Kanzler, inoculated 2 days after application, assessed 5-7 days after application, read-out: control of Phaeosphaeria nodorum (percent disease control compared to untreated). Summed up: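 Wheat leaf segments (cv Kanzler) on agar sprayed with compound at 200 ppm, inoculated with spores 2 days later. Incubated at 20° C., 75% relative humidity, 12/12 h light/dark; percent disease control versus untreated scored 5-7 days after application.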

Series [5] concerns Puccinia recondita f. sp. Tritici. Kind of series: Puccinia recondita f. sp. tritici / wheat / leaf disc preventative (brown rust). Format: in vivo. To be noted: foliar, wheat leaf segments cv Kanzler, inoculated 1 day after application, assessed 7-9 days after application, read-out: control of Puccinia recondita f. sp. Tritici (percent disease control compared to untreated). Summed up:
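Preventative test: percent disease control relative to untreated leaf segments was assessed 7-9 days post-application. Wheat (cv Kanzler) leaf discs were treated at 200 ppm and spore-inoculated 1 day afterwards. Discs were held at 19° C and 75% relative humidity under a 12/12 h light cycle.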

Series [6] deals with Thanatephorus cucumeris (Rhizoctonia solani). Kind of series: Thanatephorus cucumeris (Rhizoctonia solani) / liquid culture (foot rot, damping-off). The series is classed as cell-based. To be noted: PDB, 24° C., 3-4 days after application, read-out: control of Thanatephorus cucumeris (inhibition of growth, photometric). The essentials:
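At 200 ppm, compounds in DMSO were combined with fresh liquid-culture mycelia in PDB and kept at 24° C; photometric measurement of growth inhibition after 3-4 days.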

Series [7] relates to Mycosphaerella graminicola (Septoria tritici). Kind of series: Mycosphaerella graminicola (Septoria tritici) / liquid culture (Septoria blotch). To be noted: Zymoseptoria tritici, PDB, 24° C., 4-5 days after application, read-out: control of Mycosphaerella graminicola (inhibition of growth, photometric). Format: cell-based. The essentials: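 Growth inhibition was read photometrically after 4–5 days at 24 °C. The test compound was applied at 200 ppm from DMSO solution, then PDB broth seeded with conidia taken straight from cryogenic storage was added.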

Series [8] has as its system Mycosphaerella arachidis (Cercospora arachidicola). Kind of series: Mycosphaerella arachidis (Cercospora arachidicola) / liquid culture (early leaf spot). The series is classed as cell-based. To be noted: PDB, 24° C., 4-5 days after application, read-out: control of Mycosphaerella arachidis (inhibition of growth, photometric). On the procedure: Mycosphaerella Arachidis (Cercospora arachidicola)/Liquid Culture (Early Leaf Spot): Conidia of the fungus from cryogenic storage were directly mixed into nutrient broth (PDB potato dextrose broth). After placing a DMSO solution of test compound into a 96-well microtiter plate at an application rate of 200 ppm, the nutrient broth containing the fungal spores was added. The test plates are incubated at 24° C. and the inhibition of growth was determined photometrically 4-5 days after application.

For series [9], the system named is Sclerotinia sclerotiorum. Kind of series: Sclerotinia sclerotiorum liquid culture (cottony rot / white mold). To be noted: PDB, 24° C., 3-4 days after application, read-out: control of Sclerotinia sclerotiorum (inhibition of growth, photometric). Format: cell-based. On the procedure: Sclerotinia sclerotiorum (Cottony Rot/White Mold): Mycelia fragments of a newly grown liquid culture of the fungus were directly mixed into nutrient broth (PDB potato dextrose broth). After placing a (DMSO) solution of test compound into a microtiter plate (96-well format) the nutrient broth containing the fungal material was added. The test plates are incubated at 24° C. and the inhibition of growth was determined photometrically 3-4 days after application.

In series [10] the test system is Monographella nivalis (Microdochium nivale). Kind of series: Monographella nivalis (Microdochium nivale) / liquid culture (foot rot cereals). To be noted: PDB, 24° C., 4-5 days after application, read-out: control of Monographella nivalis (inhibition of growth, photometric). Format: cell-based. The essentials:
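Cryostored conidia in potato dextrose broth were added to test compound dispensed from DMSO at 200 ppm. Plates were kept at 24° C, and growth inhibition was read photometrically 4-5 days after application.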

For series [11], the system named is Gaeumannomyces graminis. Kind of series: Gaeumannomyces graminis / liquid culture (take-all of cereals). Format: cell-based. To be noted: PDB, 24° C., 4-5 days after application, read-out: control of Gaeumannomyces graminis (inhibition of growth, photometric). Summed up: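 Growth inhibition, measured by photometry 4-5 days post-application at 24 °C, of fungal mycelial fragments in PDB broth. Test compound applied as DMSO solution at 200 ppm.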

Series [12] deals with Glomerella lagenarium (Colletotrichum lagenarium). Kind of series: Glomerella lagenarium (Colletotrichum lagenarium) / liquid culture (anthracnose). The series is classed as cell-based. To be noted: Colletotrichum orbiculare, PDB, 24° C., 3-4 days after application, read-out: control of Glomerella lagenarium (inhibition of growth, photometric). Summed up:
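Test compound, delivered in DMSO at an application rate of 200 ppm, was combined with spore-containing PDB. Photometric growth-inhibition measurement followed 3-4 days of incubation at 24° C.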

The test system of series [13] is Blumeria graminis f. Sp. Tritici (Erysiphe graminis f. Sp. Tritici). Kind of series: Blumeria graminis f. sp. tritici / wheat / leaf disc preventative (powdery mildew on wheat). The series is classed as in vivo. To be noted: foliar, wheat leaf segments cv. Kanzler, inoculated 1 day after application, assessed 6-8 days after application, read-out: control of Blumeria graminis (percent disease control compared to untreated). How it is done: Blumeria graminis f. Sp. Tritici (Erysiphe graminis f. Sp. Tritici)/Wheat/Leaf Disc Preventative (Powdery Mildew on Wheat):
Wheat leaf segments cv. Kanzler were placed on agar in a 24-well plate and sprayed with the formulated test compound diluted in water at an application rate of 200 ppm. The leaf disks were inoculated by shaking powdery mildew infected plants above the test plates 1 day after application. The inoculated leaf disks were incubated at 20° C. and 60% relative humidity under a light regime of 24 h darkness followed by 12 h/12 h (dark/light) in a climate chamber and the activity of a compound was assessed as percent disease control compared to untreated when an appropriate level of disease damage appears on untreated check leaf segments (6-8 days after application). The following compounds gave at least 80% control of Blumeria graminis at 200 ppm when compared to untreated control leaf disks under the same conditions, which show extensive disease development: 2, 13, 23, 50, 59, 61, 67, 75, 85, 86, 89, 90, 93, 102, 103, 107, 134, 136, 137, 138, 139, 141, 145, 151, 153, 154, 163, 173, 174

Regarding `CCn1c(-n2ncnc2N)nc2cncc(-c3ccc(C)cc3C)c21` [Compound 45, 2-[7-(2,4-dimethylphenyl)-1-ethylimidazo[4,5-c]pyridin-2-yl]-1,2,4-triazol-3-amine], the inhibition at 20 ppm in series [1], in [6], in [7] and in [8] was at least 80% throughout. In addition, the pest or weed control at 200 ppm in series [2], in series [3], in [4] and in [5] was at least 80% in each case.

For `CCn1c(-n2ncnc2N)nc2cncc(-c3cccc4c3OC(F)(F)O4)c21` [Compound 48, 2-[7-(2,2-difluoro-1,3-benzodioxol-4-yl)-1-ethylimidazo[4,5-c]pyridin-2-yl]-1,2,4-triazol-3-amine], the inhibition at 20 ppm in [1], in series [9], in series [10], in series [11], in series [6] and in series [7] was at least 80% in each case. Besides, the inhibition at 20 ppm in series [8] and in series [12] was at least 80% throughout. The pest or weed control at 200 ppm in [2], in [3], in [4] and in series [5] was at least 80% throughout.

Take `CCn1c(-n2ncnc2N)nc2cncc(-c3cncnc3)c21` [Compound 50, 2-(1-ethyl-7-pyrimidin-5-ylimidazo[4,5-c]pyridin-2-yl)-1,2,4-triazol-3-amine]: the pest or weed control at 200 ppm in series [13] was at least 80%.

On to `CCn1c(-n2ncnc2N)nc2cncc(C3CC(c4ccccc4)=NO3)c21` (stereo not drawn) [Compound 109, 2-[1-ethyl-7-(3-phenyl-4,5-dihydro-1,2-oxazol-5-yl)imidazo[4,5-c]pyridin-2-yl]-1,2,4-triazol-3-amine], for which the melting point (usually the temperature of the solid-liquid transition) lay within 201 to 209 °C. The inhibition (in general, how much of the control response was suppressed) at 20 ppm in series [1] is at least 80%. Besides, the pest or weed control at 200 ppm in series [2] is at least 80%. Besides, the pest or weed control at 200 ppm in series [3] was at least 80%. The pest or weed control at 200 ppm in [5] was at least 80%. The inhibition at 20 ppm in series [11] is at least 80%. The inhibition at 20 ppm in series [6] was at least 80%. The inhibition at 20 ppm in series [7] is at least 80%.

In the case of `CCn1c(-n2ncnc2N)nc2cncc(C(C)=NOCc3ccc(F)cc3)c21` [Compound 135], the melting point was in the range of 175 to 187 °C. The inhibition at 20 ppm in series [1] was at least 80%. Besides, the pest or weed control at 200 ppm in [2] was at least 80%. Besides, the pest or weed control at 200 ppm in [3] was at least 80%. For the same compound, in series [5], the pest or weed control at 200 ppm is at least 80%. Moreover, the inhibition at 20 ppm in series [11] is at least 80%. Further, the inhibition at 20 ppm in [6] was at least 80%. Further, the inhibition at 20 ppm in series [7] was at least 80%.

For `CCn1c(-n2ncnc2N)nc2cncc(C(C)=NOCc3ccccc3Cl)c21` [Compound 144], the inhibition at 20 ppm in [1], in series [9], in series [10], in [6], in [7] and in series [12] was at least 80% in each case. Also, the pest or weed control at 200 ppm in [2], in series [3], in series [4] and in [5] was at least 80% throughout.

For the compound `CCn1c(-n2ncnc2N)nc2cncc(C(C)=NOCC=C(Cl)Cl)c21` [Compound 155], the inhibition at 20 ppm in series [1], in [9], in series [10], in [6], in series [7] and in series [8] was at least 80% in each case. The inhibition at 20 ppm in [12] is at least 80%. Also, the pest or weed control at 200 ppm in series [2], in [3], in [4] and in series [5] was at least 80% each time.

For `CCn1c(-n2ncnc2N)nc2cncc(/C(C)=N\OCC=C(C)C)c21` [Compound 156], the inhibition at 20 ppm in series [1], in series [9], in series [10], in [6], in [7] and in [12] was at least 80% each time. Besides, the pest or weed control at 200 ppm in series [2], in series [3], in [4] and in [5] was at least 80% throughout.

Take `CCn1c(-n2ncnc2N)nc2cncc(/C(C)=N\OCC(C)C)c21` [Compound 161]: the inhibition at 20 ppm in [1], in [9], in series [6], in series [7], in series [8] and in [12] was at least 80% each time. Besides, the pest or weed control at 200 ppm in series [2], in series [3] and in series [5] was at least 80% throughout.

With `CCn1c(-n2ncnc2N)nc2cncc(C(C)=NOCc3ccccc3)c21` [Compound 165], the inhibition at 20 ppm in [1], in series [9], in series [10], in [6], in series [7] and in series [12] was at least 80% throughout. Besides, the pest or weed control at 200 ppm in series [2], in [3], in series [4] and in series [5] was at least 80% in each case.
